Results reported in PMC10564737, “Structure-based design of a phosphotyrosine-masked covalent ligand targeting the E3 ligase SOCS2” (Nature Communications, 2023).
Values joined by “and” are separate entries in the source; they are usually repeats but may differ in a detail not shown here. Equal values may be shown once.

Legend:
[1] = biological target: T1, SOCS4-EloBC (SBC4) (Homo sapiens, UniProt Q8WXH5); experiment: Intact ESI-MS of recombinant protein, covalent modification; assay type: biochemical; details: SOCS4 + MN551 (1:1, 40 µM), 0 min
T1 construct: SOCS4 (amino acids 274-437); made in house; E. coli implied
Text: (§1) Having established the specificity of MN551 for covalent modification of Cys111 of SOCS2, we turned our attention to the intra-SOCS family selectivity of MN551. We performed a multiple sequence alignment of the SH2 domains from all the SOCS proteins (Fig. 3a). The Cys111 targeted by MN551 for covalency is part of the EF loop in SOCS2. Beyond SOCS2, other family members SOCS4, SOCS5, SOCS7, and CISH also have a cysteine in the same loop (Fig. 3a), and given the expected conserved ligand binding mode, they could all be engaged by MN551. To verify our hypothesis, we incubated recombinant SOCS/EloBC complexes of SOCS4 (SBC4), SOCS6 (SBC6), and CISH with MN551 for 2 h and analyzed for covalent modification of the SOCS proteins by intact ESI-MS (Fig. 3b–d). These proteins were chosen as SOCS4 and SOCS6 are already structurally well characterized, and because SOCS4 Cys350, and CISH Cys144 are in a similar position as Cys111 in SOCS2, whereas SOCS6 is lacking cysteines in the EF loop[36]–[38]. […] Although SOCS6 lacks a cysteine in its EF loop, Cys471 from the BG loop is predicted to be in close proximity to the chloroacetamide functional group of MN551, as evident from the superposed SOCS2 and SOCS6 structures, potentially explaining the modification, albeit minimal (Fig. 3f). Structure-guided improvements upon this observed MN551-SOCS6 covalency could expedite future attempts in development of covalent binders for SOCS6. In the absence of a PDB structure for CISH, we overlayed SOCS2-SH2 domain with an AlphaFold model generated for the CISH SH2 domain with deletions in the N-terminus and the PEST sequence (66-258, Δ174-202, Fig. 3g). Amongst all the SOCSs, CISH has the highest sequence identity to SOCS2-SH2 and the presence of a conserved Cys144 in the EF loop together likely explain its complete covalent modification by MN551.
(§2) SBC2 protein (40 µM), SBC2 C111S, SBC4, SBC6, or CISH were incubated with an equimolar concentration of MN551 in 50 mM Tris, pH 8.0, 50 mM NaCl, 1 mM TCEP. At defined time points 20 µl samples were removed and the protein precipitated by the addition of 80 µl methanol. The precipitated protein was pelleted by centrifugation, washed with 500 µl methanol, and resuspended in an aqueous solution of 15% acetonitrile and 1% TFA. Samples were separated by HPLC on a C3 column using a 10–75% gradient of acetonitrile and analyzed using an Agilent 6130 quadrupole MS. Spectra were deconvoluted and integrated using Agilent LC/MSD ChemStation.

[2] = biological target: T2, SOCS6-EloBC (SBC6) (Homo sapiens, UniProt O14544); experiment: as above; assay type: biochemical; details: SOCS6 + MN551 (1:1, 40 µM)
T2 construct: SOCS6 (amino acids 353-535); His6-GST (N, cleaved yes); made in house; E. coli implied
Text: as §1, §2

[3] = biological target: T3, CISH-EloBC (Homo sapiens, UniProt Q9NSE2, DEL174-202); experiment: as above; assay type: biochemical; details: CISH + MN551 (1:1, 40 µM), 0 min
T3 construct: CISH (66-258 Δ174-202) was codon-optimized for bacterial expression; GST (from pGEX-6P-1); made in house; host or cells: E. coli BL21(DE3)
Text: as §1, §2

[4] = test system: reduced glutathione (GSH); experiment: Glutathione (GSH) reactivity assay; assay type: physicochemical; details: 5 mM reduced glutathione (GSH) in potassium phosphate buffer; 5 mM GSH, 37 °C, pH 7.4
Description: MN551/MN714 (1/10 μM) were incubated at 37 °C with 5 mM GSH in 100 mM potassium phosphate buffer, pH 7.4 (0.1% DMSO). […] Samples were then analyzed with an LC (Shimadzu LC-40)/MS/MS (Triple Quad 6500+). From the mass spectrum, peak area ratios (peak area analyte/peak area of a stable internal standard) were calculated and the percent compound remaining was determined relative to time zero.

[5] = biological target: T4, SOCS2 (SBC2) (Homo sapiens, UniProt O14508); experiment: Intact ESI-MS of recombinant protein, covalent modification; assay type: biochemical
T4 construct: SOCS2 (amino acids 32–198); His6 (N, cleaved yes); made in house; host or cells: E. coli BL21(DE3)
Description: as §2

With `O=C(CCl)Nc1cccc(CNC(=O)[C@H](Cc2ccc(OP(=O)(O)O)cc2)NC(=O)Cc2ccc(F)cc2)c1` [MN551] the “% modified” value [1] was 0.0%, the “% double-modified” value ([2]; 0 min) was 0.0% and the “% modified (single adduct)” value ([2]; 0 min) was 0.0%. For the same compound, the “% double-modified” value ([2]; 120 min) was 2.6%, the “% modified (single adduct)” value ([2]; 120 min) was 18% and 18.3% and the “% modified” value [3] was 0.0%. The half-life [4] was > 1.17 h, the “covalent adduct observed by intact mass analysis” value ([5]; SBC2 (40 µM) treated with MN551 (40 µM)) was 1:1 covalent SOCS2:MN551 adduct and single covalent adduct and the “time to stoichiometric occupancy at Cys111” value ([5]; recombinant SOCS2, equimolar compound) was ≤ 2 h.
